Results on 33 compounds are retold here after US9079905B2, “Compounds for the treatment of CNS disorders” (Boehringer Ingelheim International GmbH, priority 2008, dated 2015).

The target in assay [1] is human PDE9A (Homo sapiens, UniProt O76083). The settings on record: concentrations of up to 100 micromolar (μM); cited from earlier work.
Assay [2] has as its target T1, Murine PDE9A (Mus musculus, UniProt O70628).
T1 sequence (O70628 1-534): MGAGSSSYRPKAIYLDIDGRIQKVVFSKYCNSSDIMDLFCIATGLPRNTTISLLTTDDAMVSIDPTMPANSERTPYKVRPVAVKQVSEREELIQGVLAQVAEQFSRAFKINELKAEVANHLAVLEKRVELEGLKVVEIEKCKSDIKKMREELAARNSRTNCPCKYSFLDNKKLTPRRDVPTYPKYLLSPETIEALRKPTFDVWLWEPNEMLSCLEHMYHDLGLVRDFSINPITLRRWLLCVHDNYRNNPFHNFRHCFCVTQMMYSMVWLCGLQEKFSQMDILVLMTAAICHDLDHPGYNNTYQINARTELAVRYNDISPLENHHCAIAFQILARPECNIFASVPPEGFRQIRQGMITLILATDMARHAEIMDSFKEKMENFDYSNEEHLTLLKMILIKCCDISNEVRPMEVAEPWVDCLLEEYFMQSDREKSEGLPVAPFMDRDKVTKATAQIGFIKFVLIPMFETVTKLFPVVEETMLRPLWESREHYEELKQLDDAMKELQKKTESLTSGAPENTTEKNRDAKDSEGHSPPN
The settings on record: concentrations below 200 micromolar; cited from earlier work.

In assay [3] the target is T2, human PDE9A2 (Homo sapiens, UniProt O76083).
T2 construct: made in house; host or cells: Sf9 insect cells (infected; crude lysate used as enzyme source)
T2 sequence (O76083 1-533 isoform O76083-2): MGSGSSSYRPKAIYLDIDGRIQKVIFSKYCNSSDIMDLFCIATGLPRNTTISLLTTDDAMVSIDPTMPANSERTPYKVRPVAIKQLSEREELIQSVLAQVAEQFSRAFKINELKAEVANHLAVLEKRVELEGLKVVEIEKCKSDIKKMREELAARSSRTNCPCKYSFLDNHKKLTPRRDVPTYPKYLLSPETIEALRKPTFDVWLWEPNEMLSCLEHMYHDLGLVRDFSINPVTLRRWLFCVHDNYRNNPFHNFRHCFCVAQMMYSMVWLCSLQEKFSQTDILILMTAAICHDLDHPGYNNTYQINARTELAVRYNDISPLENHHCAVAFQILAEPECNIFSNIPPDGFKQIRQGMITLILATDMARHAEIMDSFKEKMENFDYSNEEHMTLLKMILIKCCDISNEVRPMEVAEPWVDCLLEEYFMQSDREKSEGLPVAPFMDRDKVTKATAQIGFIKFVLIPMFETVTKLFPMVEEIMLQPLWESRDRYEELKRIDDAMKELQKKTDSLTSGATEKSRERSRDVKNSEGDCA
The assay can be described thus: PDE9A2 enzymatic activity assay (scintillation proximity assay). Format: biochemical. The settings on record: for IC50: specific IC50 value is within the given range. The procedure:
The PDE9A2 enzymatic activity assay was run as scintillation proximity assay (SPA), in general according to the protocol of the manufacturer (Amersham Biosciences, product number: TRKQ 7100).
As enzyme source, lysate (PBS with 1% Triton X-100 supplemented with protease inhibitors, cell debris removed by centrifugation at 13.000 rpm for 30 min) of SF 9 cell expressing the human PDE9A2 was used. The total protein amount included in the assay varied upon infection and production efficacy of the SF9 cells and lay in the range of 0.1-100 ng.
In general, the assay conditions were as follows: • total assay volume: 40 microliter • protein amount: 0.1-50 ng • substrate concentration (cGMP): 20 nanomolar; ˜1 mCi/1 • incubation time: 60 min at room temperature • final DMSO concentration: 0.2-1
The assays were run in 384-well format. The test reagents as well as the enzyme and the substrate were diluted in assay buffer. The assay buffer contained 50 mM Tris, 8.3 mM MgCl2, 1.7 mM EGTA, 0.1% BSA, 0.05% Tween 20; the pH of assay buffer was adjusted to 7.5. The reaction was stopped by applying a PDE9 specific inhibitor (e.g. compounds according to WO04099210 or WO04099211) in excess.
The activity of the positive control (minus the negative control=background) is set to 100% and activity in the presence of test compound is expressed relative to these 100%. Within this setting, an inhibition above 100% might be possible due to the nature of the variation of the positive control within the assay. In the following inhibition of PDE 9A2 is presented for a concentration at 10 μM, if not indicated otherwise.
IC50 can be calculated with GraphPadPrism or other suited software setting the positive control as 100 and the negative control as 0. For calculation of IC50 dilutions of the test compounds (substrates) are to be selected and tested following the aforementioned protocol.

[4] abbreviates: read-out: % Inhibition of PDE 9A2.

human PDE9A, sequence (O76083 whole entry): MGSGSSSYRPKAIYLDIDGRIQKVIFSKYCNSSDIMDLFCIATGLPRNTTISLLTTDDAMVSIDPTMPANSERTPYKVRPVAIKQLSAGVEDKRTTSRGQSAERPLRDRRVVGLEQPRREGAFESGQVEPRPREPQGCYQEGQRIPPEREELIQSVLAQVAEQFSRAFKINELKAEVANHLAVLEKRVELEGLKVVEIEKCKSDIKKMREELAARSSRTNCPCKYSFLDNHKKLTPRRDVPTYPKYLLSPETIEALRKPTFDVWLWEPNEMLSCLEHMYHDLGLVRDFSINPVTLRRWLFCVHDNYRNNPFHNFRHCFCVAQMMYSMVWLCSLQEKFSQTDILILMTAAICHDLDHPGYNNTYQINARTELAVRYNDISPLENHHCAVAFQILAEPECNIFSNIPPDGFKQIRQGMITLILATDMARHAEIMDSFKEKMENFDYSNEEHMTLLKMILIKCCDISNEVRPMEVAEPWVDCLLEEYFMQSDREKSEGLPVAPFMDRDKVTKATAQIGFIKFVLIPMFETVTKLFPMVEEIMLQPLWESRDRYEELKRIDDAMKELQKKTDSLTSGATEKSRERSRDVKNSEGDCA

As to `CC(=O)Nc1ccc(-c2c[nH]c(=O)cn2)cc1` [SKF94120], in assay [1], the “inhibition on the isolated enzyme” value is “no inhibition”. Consider `CC(C)Cn1c(=O)n(C)c(=O)c2[nH]cnc21` [IBMX], for which the “inhibition of murine PDE9A” value in assay [2] was “not inhibited”. Besides, in assay [1], the “inhibition on the isolated enzyme” value was “no inhibition”.

On to `CCOC(=O)C1=C[C@]2(CC)CCCN3CCc4c(n1c1ccccc41)[C@@H]32` [vinpocetine], for which, in assay [1], the “inhibition on the isolated enzyme” value is listed as “no inhibition”. A word on the inhibition: it is the drop in the measured response relative to a control, in per cent. By IC50 is commonly meant the concentration needed to halve the response being measured. A lower IC50 goes with inhibition by little substance. Regarding `O=c1[nH]c(Cc2ccccc2CCCN2CCOCC2)nc2c1cnn2C1CCC(F)(F)CC1` [Example 78], the inhibition at 10 µM in assay [3] (setting [4]) came to 97%. Besides, the half-inhibitory concentration (IC50) in assay [3] lay in the range of 1 to 100 nM. For `COc1cncc(-c2cc(F)ccc2Cc2nc3c(cnn3C3CCC(F)(F)CC3)c(=O)[nH]2)c1` [Example 67] the same measures were 99% and 1 to 100 nM. Take `N#Cc1ccc(-c2ccc(F)cc2Cc2nc3c(cnn3C3CCC(F)(F)CC3)c(=O)[nH]2)cc1` [Example 72-6]: the inhibition at 1 µM in assay [3] (at 1 μM, read-out: % Inhibition of PDE 9A2) was 96%. Also, the IC50 in assay [3] fell in the range of 1 to 100 nM.

In the case of `O=c1[nH]c(C(F)c2ccccc2Br)nc2c1cnn2C1CCC(F)(F)CC1` (racemic) [Example 48-2], the inhibition at 10 µM in assay [3] (setting [4]) was found to be 92%. Further, the IC50 in assay [3] was in the range of 101 to 1500 nM.

Regarding `C[C@@H]1CC(Cc2nc3c(cnn3C3CCC(F)(F)CC3)c(=O)[nH]2)C(=O)N1C` (mixture of isomers) [Example 48-6], the inhibition at 10 µM in assay [3] (setting [4]) was 87%. This compound also registered a half-inhibitory concentration (IC50) in assay [3] of 101 to 1500 nM. For `O=c1[nH]c(Cc2cc(F)ccc2-c2ccnc(F)c2)nc2c1cnn2C1CCC(F)(F)CC1` [Example 72-4] the same measures were 101% and 1 to 100 nM. The like results for `O=c1[nH]c(Cc2cc(F)ccc2-c2ccncc2)nc2c1cnn2C1CCC(F)(F)CC1` [Example 70] were, in that order, 100% and 1 to 100 nM. The like results for `CN1CCN(C(=O)Cc2ccccc2Cc2nc3c(cnn3C3CCC(F)(F)CC3)c(=O)[nH]2)CC1` [Example 80] were, in that order, 91% and 101 to 1500 nM. In the case of `COc1ccc(C2CNC(=O)C2)cc1OC1CCCC1` (centres unmarked) [rolipram], in assay [1], the “inhibition on the isolated enzyme” value is “no inhibition”. On to `COc1cncc(-c2ccccc2Cc2nc3c(cnn3C3CCC(F)(F)CC3)c(=O)[nH]2)c1` [Example 53], for which the inhibition at 10 µM in assay [3] (setting [4]) came to 100%. For the same compound, in assay [3], the IC50 lay within 1 to 100 nM. The like results for `CC(C)(C)OC(=O)NC1CCCC(n2ncc3c(=O)[nH]c(CC4CCCC4)nc32)C1` (mixture of isomers) [Example 16] were, in that order, 104% and 1 to 100 nM.

For the compound `O=c1[nH]c(Cc2ccccn2)nc2c1cnn2C1CCCC(c2ccccc2)C1` (mixture of isomers) [Example 14], in assay [3] (setting [4]), the inhibition at 10 µM was 94%. This compound also came in with a half-maximal inhibitory concentration (IC50) in assay [3] of 101 to 1500 nM. As for `O=c1[nH]c(C(F)c2ccccc2)nc2c1cnn2C1CCC(F)(F)CC1` (racemic) [Example 25], the inhibition at 10 µM in assay [3] (setting [4]) came out at 103%. This compound also had a 50% inhibitory concentration (IC50) in assay [3] of 1 to 100 nM. Take `O=c1[nH]c(Cc2ccc(F)cc2-c2ccncc2)nc2c1cnn2C1CCC(F)(F)CC1` [Example 72]: the inhibition at 10 µM in assay [3] (setting [4]) is 97%. Further, in assay [3], the IC50 was 101 to 1500 nM. Turning to `OCCN(CCO)c1nc(N2CCCCC2)c2nc(N(CCO)CCO)nc(N3CCCCC3)c2n1` [dipyridamole], the “inhibition on the isolated enzyme” value in assay [1] was “no inhibition”.

In the case of `CC(Cc1nc2c(cnn2C2CCC(F)(F)CC2)c(=O)[nH]1)C(=O)N1CCCCC1` (centres unmarked) [Example 39], the inhibition at 10 µM in assay [3] (setting [4]) came to 84%. In assay [3], the IC50 is 101 to 1500 nM. The like results for `O=c1[nH]c(Cc2cc(F)ccc2-c2ccc(F)nc2)nc2c1cnn2C1CCC(F)(F)CC1` [Example 72-7] were, in that order, 100% and 1 to 100 nM. For `COC1CCCCC1n1ncc2c(=O)[nH]c(Cc3ccccn3)nc21` (racemic) [Example 12] the same measures were 83% and 101 to 1500 nM. The like results for `Cn1cc(-c2cccnc2Cc2nc3c(cnn3C3CCC(F)(F)CC3)c(=O)[nH]2)cn1` [Example 94] were, in that order, 98% and 1 to 100 nM.

As for `O=c1[nH]c(CCCC(F)(F)F)nc2c1cnn2C1CCC(F)(F)CC1` [Example 32], the inhibition at 10 µM in assay [3] (setting [4]) turned out to be 98%. The IC50 in assay [3] is 1 to 100 nM. In the case of `N#Cc1ccccc1Cc1nc2c(cnn2C2CCC(F)(F)CC2)c(=O)[nH]1` [Example 31], in assay [3] (setting [4]), the inhibition at 10 µM was 99%. The IC50 in assay [3] lay within 1 to 100 nM. As to `O=c1[nH]c(CC2CCC(F)(F)CC2)nc2c1cnn2C1CCC(F)(F)CC1` [Example 34], the inhibition at 10 µM in assay [3] (setting [4]) worked out at 96%. Moreover, the half-maximal inhibitory concentration (IC50) in assay [3] lay within 101 to 1500 nM. The like results for `Cc1ccn(-c2ccccc2Cc2nc3c(cnn3C3CCC(F)(F)CC3)c(=O)[nH]2)n1` [Example 106] were, in that order, 83% and 1 to 100 nM. The like results for `CC1(C)CC(Cc2nc3c(cnn3C3CCC(F)(F)CC3)c(=O)[nH]2)CO1` (racemic) [Example 52] were, in that order, 98% and 1 to 100 nM. As for `O=c1[nH]c(C(F)c2ccccc2-c2ccncc2)nc2c1cnn2C1CCC(F)(F)CC1` (racemic) [Example 72-10], the inhibition at 3.3 µM in assay [3] (at 3.3 μM, read-out: % Inhibition of PDE 9A2) turned out to be 52%. In assay [3], this compound yielded a half-maximal inhibitory concentration (IC50) of 101 to 1500 nM. As for `COc1ccc(-c2cc(F)ccc2Cc2nc3c(cnn3C3CCC(F)(F)CC3)c(=O)[nH]2)cn1` [Example 69], the inhibition at 10 µM in assay [3] (setting [4]) was found to be 97%. In assay [3], this compound displayed an IC50 of 101 to 1500 nM. The like results for `NC(=O)c1ccc(-c2cc(F)ccc2Cc2nc3c(cnn3C3CCC(F)(F)CC3)c(=O)[nH]2)cn1` [Example 62] were, in that order, 100% and 1 to 100 nM.

As for `O=c1[nH]c(Cc2ccccn2)nc2c1cnn2C1CCC(F)(F)CC1` [Example 1], in assay [3] (setting [4]), the inhibition at 10 µM came to 98%. The same compound gave an IC50 in assay [3] of 1 to 100 nM. Consider `O=c1[nH]c(CC2CCCC2)nc2c1cnn2C1CCC(F)(F)CC1` [Example 20], for which the inhibition at 10 µM in assay [3] (setting [4]) came out at 104%. Further, in assay [3], the IC50 fell in the range of 1 to 100 nM.

Consider `O=c1[nH]c(Cc2ccc(F)cc2Br)nc2c1cnn2C1CCC(F)(F)CC1` [Example 44], for which the inhibition at 10 µM in assay [3] (setting [4]) came out at 92%. Further, the IC50 in assay [3] lay within 101 to 1500 nM.
